Experimental data: article PMC9674596, “Origin of acetylcholine antagonism in ELIC, a bacterial pentameric ligand-gated ion channel” (Communications Biology, 2022)
“Also recorded” adds a separate entry of the source.

How the values were obtained:
ELIC A75D = biological target: T1, ELIC A75D (Dickeya chrysanthemi, UniProt P0C7B7, A75D/INS163G); test: Two-electrode voltage clamp, A75D mutant ELIC expressed in Xenopus laevis oocytes; assay type: cell-based, Erwinia chrysanthemi; settings: A75D
T1 construct: expressed in transfected cells; host or cells: Xenopus laevis oocytes injected with cRNA from ELIC-pTLN

[1] = biological target: T2, ELIC L240A (L9′A) + A75D/F133W (Dickeya chrysanthemi, UniProt P0C7B7, A75D/F133W/L239A); test: Two-electrode voltage clamp, L9′A + A75D/F133W triple mutant ELIC expressed in Xenopus laevis oocytes; assay type: cell-based, Erwinia chrysanthemi
T2 construct: expressed in transfected cells; host or cells: Xenopus laevis oocytes injected with cRNA
Description: Stage V-VI Xenopus laevis oocytes were isolated[72] and deflocculated enzymatically in ND96 buffer without Ca^2+ (96 mM NaCl, 2 mM KCl, 1 mM MgCl2, 2 mM pyruvate, 5 mM HEPES, pH 7.4), but supplemented with 1 mg/mL collagenase B and 1 mg/mL trypsin inhibitor, for 2 h at room temperature under constant stirring. The deflocculation buffer was then gradually removed by washing the oocytes in ND96 buffer (96 mM NaCl, 2 mM KCl, 1 mM MgCl2, 1 mM CaCl2, 2 mM pyruvate, 5 mM HEPES, pH 7.4) for several iterations. The oocytes were then allowed to stir for an additional hour at room temperature under constant stirring with the buffer being periodically replaced until clear. To obtain optimal receptor expression, individually selected and healthy oocytes were injected with 0.2 ng cRNA for wild-type ELIC and 5 ng cRNA for mutants. Subsequently, oocytes were incubated for one day at 16 °C in ND96^+ buffer (96 mM NaCl, 2 mM KCl, 1 mM MgCl2, 1 mM CaCl2, 2 mM pyruvate, and 5 mM HEPES at pH 7.6). After expression, injected oocytes were placed in a RC-1Z oocyte chamber (Harvard Apparatus; Hamden, CT) containing buffer (pH 7.4) composed of 150 mM NaCl, 0.5 mM BaCl2, 10 mM HEPES, and 1 mM dithiothreitol or 1 µM atropine if cysteamine, or ACh, was used in the experiment, respectively. The presence of the reducing agent, dithiothreitol, ensures that the sulfhydryl group of cysteamine remains reduced.
Once in the oocyte chamber, whole-cell currents were recorded using a two-electrode voltage-clamp apparatus (OC-725C oocyte clamp; Harvard Apparatus), with a buffer flow rate of 5–10 mL min^−1. Currents in response to various additions of cysteamine and/or ACh, were measured with the transmembrane voltage clamped at −60 mV. Dose response curves for each wild-type and mutant ELIC were acquired from at least five oocytes in two different batches.
For identifying the half maximal effective concentration (EC50) and apparent Hill coefficient (nH) of cysteamine, dose response curves were created by taking the magnitude of each cysteamine-activated peak current (I) and normalizing this value to the maximal peak current in the presence of excess agonist (Imax). The log (base 10) cysteamine concentration in molar was then plotted on the x-axis against the fractional response (I/Imax) on the y-axis. The data was fitted using nonlinear regression with a variable slope sigmoidal dose response (Eq. 1, below) in GraphPad Prism (v.8.0.0).1 y=1/1+10^nH^LogEC50−X
Individual EC50 and Hill coefficients were averaged for each oocyte to derive a mean ± standard deviation. For identifying a half maximal inhibitory concentration (IC50) and Hill coefficient of ACh, a concentration of cysteamine corresponding to its EC50 was used in the presence of increasing concentrations of ACh. […]

NCCS [cysteamine]
Cysteamine concentration corresponding to EC10 (ELIC A75D): 0.6 mM
Cysteamine concentration corresponding to EC20 (ELIC A75D): 0.9 mM
Increase in EC50 for cysteamine relative to wild-type (ELIC A75D): 3 fold
Activation Hill coefficient (ELIC A75D; cysteamine as agonist): 2.3 ± 0.5
EC50 (ELIC A75D; cysteamine as agonist, read-out: Activation EC50): 1.6 ± 0.4 mM
Peak current on application of ligand alone (ELIC A75D; ACh 0.5 mM to 50 mM, followed by 5 mM cysteamine): robust peak current
EC90 (ELIC A75D; read-out: Cysteamine concentration corresponding to EC90): 4.2 mM
Current on application of ligand alone ([1]; L9′A + A75D/F133W, 30 s applications of ACh 0.5 to 50 mM, then 5 mM cysteamine): robust peak current; also recorded: robust activation
Activation Hill coefficient ([1]; L240A (L9′A) + A75D/F133W, cysteamine as agonist): 3.7 ± 0.3
EC50 ([1]; L240A (L9′A) + A75D/F133W, cysteamine as agonist, read-out: Activation EC50): 4.3 ± 0.6 mM
